Results from patent EP4316456A1, “BIOLOGICALLY ACTIVE QUADROCOMPLEX FOR REGULATING THE BIODIVERSITY OF SKIN MICROBIOTA” (SkyLab AG, priority 2021, dated 2022).

How the values were obtained:
Escherichia coli [1] = test: Effect of antibacterial basic samples on growth of hand skin microflora, double dilution method; assay type: cell-based; set-up: key: +: confluent growth-of test microorganisms as in the control; +: retarded or depressed growth; -: no growth; details: 5% solution of sample in purified water with 0.5% Tween 80, 30 minutes; 48 hours at 37 degrees Celsius
Experimental: (§1) A mixture consisting of purified water and 0.5% Tween 80 was used as a base to include the components of the complex. Samples were prepared using a magnetic stirrer by solubilizing the components of the quad complex in Tween 80 and gradually introducing them into purified water at 350 rpm. The stability of the samples was evaluated visually, by the absence of separation of the fatty phase from the aqueous solution. 2 strains of microorganisms of normal microflora, widely represented on the skin of the hands, were selected: Staphylococcus epidermidis and Micrococcus luteus. Microorganisms of transient opportunistic microflora present on the skin of the hands were also selected: Staphylococcus aureus, Escherichia coli and fungi of Candida albicans genus. Microorganisms were obtained by washing from the skin of the hands of subjects or using standard strains, cultivating isolated microorganisms and counting the number of grown colonies of microorganisms. The method of the analysis is based on the double dilution method and consists in preparing a suspension of bacterial cells of selected microorganisms (S. aureus, E. coli, C. albicans, S. epidermidis, M. luteus) separately at a concentration of 1×10^9 cells/ml. Next, 0.2 ml of a suspension of bacterial cells is added to 1.8 ml of a 5% solution of antibacterial components. In 30 minutes, 1 ml of the resulting mixture is added to a test tube with 9 ml of sterile saline 0.9%. In 15 more minutes, a series of dilutions is prepared in sterile saline to a concentration of 10^3 cells/ml. 0.1 ml of a solution of the initial concentration and successive dilutions is added to the surface of cups with a special nutrient medium for the growth of selected microorganisms separately. The cultures are incubated for 48 hours at 37 degrees Celsius and the colonies are counted by the standard method. The parameter for the overall assessment of the effect of the biologically active quad complex on the growth of representatives of the normal microflora was the presence or no growth of microorganisms, determined by the microbiologist based on the results of the study. The indicator of bacterial growth allows evaluating the effect of microflora on microorganisms and drawing a conclusion about the effect of the quad complex on the microflora of hand skin. The general positive trend in the use of the components of the claimed quad complex is the absence of a negative effect on the normal microflora of the skin of the hands and a pronounced antibacterial effect on the transient microflora, which will ensure the maintenance of natural non-pathogenic microflora for dermatological comfort and hygiene of hand skin.

Staphylococcus aureus [2] = test: as above; assay type: cell-based; set-up: key: +: confluent growth-of test microorganisms as in the control; +: retarded or depressed growth; -: no growth; details: 5% solution of sample in purified water with 0.5% Tween 80, 30 minutes; 48 hours at 37 degrees Celsius
Experimental: as §1

[3] = tested on: Staphylococcus epidermidis; test: as above; assay type: cell-based; set-up: key: +: confluent growth-of test microorganisms as in the control; +: retarded or depressed growth; -: no growth; details: 5% solution of sample in purified water with 0.5% Tween 80, 30 minutes; 48 hours at 37 degrees Celsius
Experimental: as §1

Micrococcus luteus [4] = test: as above; assay type: cell-based; set-up: key: +: confluent growth-of test microorganisms as in the control; +: retarded or depressed growth; -: no growth; details: 5% solution of sample in purified water with 0.5% Tween 80, 30 minutes; 48 hours at 37 degrees Celsius
Experimental: as §1

Candida albicans [5] = test: as above; assay type: cell-based; set-up: key: +: confluent growth-of test microorganisms as in the control; +: retarded or depressed growth; -: no growth; details: 5% solution of sample in purified water with 0.5% Tween 80, 30 minutes; 48 hours at 37 degrees Celsius
Experimental: as §1

Escherichia coli [6] = test: as above; assay type: cell-based; set-up: key: ++: no growth; +: depressed growth in most areas; +: retarded growth in some areas; confluent growth-of test microorganisms; details: 5% solution of sample in purified water with 0.5% Tween 80, 30 minutes; 48 hours at 37 degrees Celsius
Experimental: as §1

Staphylococcus aureus [7] = test: as above; assay type: cell-based; set-up: key: ++: no growth; +: depressed growth in most areas; +: retarded growth in some areas; confluent growth-of test microorganisms; details: 5% solution of sample in purified water with 0.5% Tween 80, 30 minutes; 48 hours at 37 degrees Celsius
Experimental: as §1

[8] = tested on: Staphylococcus epidermidis; test: as above; assay type: cell-based; set-up: key: ++: no growth; +: depressed growth in most areas; +: retarded growth in some areas; confluent growth-of test microorganisms; details: 5% solution of sample in purified water with 0.5% Tween 80, 30 minutes; 48 hours at 37 degrees Celsius
Experimental: as §1

Micrococcus luteus [9] = test: as above; assay type: cell-based; set-up: key: ++: no growth; +: depressed growth in most areas; +: retarded growth in some areas; confluent growth-of test microorganisms; details: 5% solution of sample in purified water with 0.5% Tween 80, 30 minutes; 48 hours at 37 degrees Celsius
Experimental: as §1

Candida albicans [10] = test: as above; assay type: cell-based; set-up: key: ++: no growth; +: depressed growth in most areas; +: retarded growth in some areas; confluent growth-of test microorganisms; details: 5% solution of sample in purified water with 0.5% Tween 80, 30 minutes; 48 hours at 37 degrees Celsius
Experimental: as §1

[11] = octanol to water; average logP for the essential oil; source not stated; cited from earlier work

Compound: CCO [Ethyl alcohol 96%, Ethyl alcohol]
- growth of test-strain (Escherichia coli [1]): ++
- growth of test-strain (Staphylococcus aureus [2]): ++
- growth of test-strain [3]: ++
- growth of test-strain (Micrococcus luteus [4]): ++
- growth of test-strain (Candida albicans [5]): ++

Compound: CC(C)=CCC[C@](C)(O)[C@@H]1CC=C(C)CC1 [Alpha-bisabolol 0,10%, alpha-bisabolol]
- growth of test-strain (Escherichia coli [6]): +
- growth of test-strain (Staphylococcus aureus [7]): +
- growth of test-strain [8]: -
- growth of test-strain (Micrococcus luteus [9]): -
- growth of test-strain (Candida albicans [10]): -
- logP [11]: 3.80

Compound: CC12CCC(CC1)C(C)(C)O2 [1,8-cineol 0,15%, 1,8-cineol]
- growth of test-strain (Escherichia coli [6]): +
- growth of test-strain (Staphylococcus aureus [7]): -
- growth of test-strain [8]: -
- growth of test-strain (Micrococcus luteus [9]): -
- growth of test-strain (Candida albicans [10]): -
- logP [11]: 2.82

Compound: Benzalkonium chloride [Benzalkonium chloride 0,1%]
- growth of test-strain (Escherichia coli [1]): ++
- growth of test-strain (Staphylococcus aureus [2]): ++
- growth of test-strain [3]: ++
- growth of test-strain (Micrococcus luteus [4]): ++
- growth of test-strain (Candida albicans [5]): ++

Compound: OO [Hydrogen peroxide 3%, Hydrogen peroxide]
- growth of test-strain (Escherichia coli [6]): +
- growth of test-strain (Staphylococcus aureus [7]): +
- growth of test-strain [8]: +
- growth of test-strain (Micrococcus luteus [9]): +
- growth of test-strain (Candida albicans [10]): +
